# Test results published in US20250145715A1, “B7-H3 TARGETING FUSION PROTEINS AND METHODS OF USE THEREOF” (GT Biopharma, Inc., priority 2021, published 2025).
# Experiments:
# [1] = tested on: PC3 prostate cancer cells; test: NK cell CD107a / IFNγ flow cytometry against PC3; assay type: cell-based, human; conditions: normal donor and prostate cancer patient NK cells, vs controls
# Description: FIG. 15A is a graph showing pooled analysis of proportion of NK cells from healthy donors or prostate cancer patients expressing CD107a+ (top) or IFNγ (bottom) against C4-2 targets (N=9 for healthy donors, N=3 for patients). FIG. 15B is a graph showing pooled analysis of proportion of NK cells from healthy donors or prostate cancer patients expressing CD107a+ (top) or IFNγ (bottom) against DU145 targets (N=9 for healthy donors, N=3 for patients). FIG. 15C is a graph showing pooled analysis of proportion of NK cells from healthy donors or prostate cancer patients expressing CD107a+ (top) or IFNγ (bottom) against LNCaP targets (N=9 for healthy donors, N=3 for patients). FIG. 15D is a graph showing pooled analysis of proportion of NK cells from healthy donors or prostate cancer patients expressing CD107a+ (top) or IFNγ (bottom) against PC3 targets (N=9 for healthy donors, N=3 for patients). * p<0.05, ** p<0.01, *** p<0.001, and **** p<0.0001.
# ADCC was measured in a flow cytometry assay by evaluating degranulation via CD107a (lysosomal-associated membrane protein LAMP-1) and intracellular IFNγ production. Upon thawing, normal donor and patient-derived PBMCs or ascites cells were rested overnight (37° C., 5% CO2) in RPMI 1640 media supplemented with 10% fetal calf serum (RPMI-10). […] Samples were washed and evaluated in an LSRII flow cytometer (BD Biosciences, San Jose, CA, USA). […]
# [2] = tested on: OVCAR5 ovarian cancer cells; test: NK cell CD107a / IFNγ flow cytometry against OVCAR5; assay type: cell-based, human; conditions: 30 nM, E:T 2:1, 4 hrs; vs no treatment and rhIL-15 alone
# Procedure: Healthy donor or ovarian cancer PBMC cells were incubated with ovarian tumor targets at 2:1 E:T ratio for 4 hrs with 30 nM TriKE or control condition. FIG. 30A is a graph illustrating pooled proportion of NK cells from healthy donors expressing CD107a+ (degranulation) against OVCAR8 targets (N=8). FIG. 30B is a graph illustrating pooled proportion of NK cells from healthy donors expressing IFNγ cytokine production against OVCAR8 targets (N=8). FIG. 30C is a graph illustrating pooled proportion of NK cells from healthy donors expressing CD107a+ (degranulation) against OVCAR3 targets (N=4). […] FIG. 30I is a graph illustrating that tumor killing was evaluated using IncuCyte imaging assay. […] The percentage of Live (Nuclight Red+Caspase 3/7−) tumor cells was quantified over a 48-h period and normalized to tumor alone. Readings were obtained every 15 min (representative of four separate experiments). * p<0.05, ** p<0.01, *** p<0.001, and **** p<0.0001.
# ADCC was measured in a flow cytometry assay by evaluating degranulation via CD107a (lysosomal-associated membrane protein LAMP-1) and intracellular IFNγ production. […] Samples were washed and evaluated in an LSRII flow cytometer (BD Biosciences, San Jose, CA, USA).
# The ability of cam1615B7-H3 TriKE to mediate NK cell activity against ovarian cancer cells was evaluated. […]
substance,measurement,setting,value
"cam1615B7-H3: second-generation TriKE: humanized camelid anti-CD16 VHH, human wild-type IL-15, anti-B7-H3 mAb 376.96 scFv; SEQ ID NO:1",NK cell IFNγ production against PC3,[1],enhanced
same,NK cell degranulation (CD107a) against PC3,[1],enhanced
same,NK cell degranulation against OVCAR5,[2],robust
same,NK cell intracellular IFNγ production against OVCAR5,[2],robust
